Measured values: US11020395B2, “Cycloalkyl substituted triazole compounds as agonists of the APJ receptor” (AMGEN INC., priority 2016, dated 2021)

Target: human APJ receptor (Homo sapiens (Human), UniProt P35414)
Test: [35S]GTPγS binding assay on membranes from CHO cells stably expressing human APJ receptor
Assay type: biochemical
Details: [35S]GTPγS SPA, read-out: Activity hAPJ SPA EC50 IP
How it was run: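 Membranes from CHO cells stably expressing FLAG-tagged human APJ were incubated with [35S]GTPγS in buffer with optimized GDP, MgCl2 and NaCl, 90 min at RT. EC50 values derived by non-linear regression, averaged over several independent experiments.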

Sequence of human APJ receptor (P35414 whole entry): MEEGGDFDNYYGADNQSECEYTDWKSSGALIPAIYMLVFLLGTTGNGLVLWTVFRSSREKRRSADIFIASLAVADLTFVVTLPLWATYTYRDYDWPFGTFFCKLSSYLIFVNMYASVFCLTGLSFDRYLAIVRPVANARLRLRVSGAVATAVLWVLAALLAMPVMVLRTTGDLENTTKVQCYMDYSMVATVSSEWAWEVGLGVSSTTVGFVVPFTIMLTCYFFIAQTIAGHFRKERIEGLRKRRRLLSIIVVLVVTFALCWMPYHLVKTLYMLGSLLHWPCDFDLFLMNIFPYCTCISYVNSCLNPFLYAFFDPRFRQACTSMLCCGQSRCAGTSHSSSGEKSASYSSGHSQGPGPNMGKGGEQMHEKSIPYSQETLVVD

Molecule | EC50 [nM]
COc1cccc(OC)c1-n1c(NS(=O)(=O)[C@@H](C)[C@@H](OC(C)C)c2ncc(C)cn2)nnc1[C@H]1C[C@@H](OC)C1 (racemic) [Example 227.0, (1S,2S)-N-(4-(2,6-dimethoxyphenyl)-5-(trans-3-methoxycyclobutyl)-4H-1,2,4-triazol-3-yl)-1-(5-methyl-2-pyrimidinyl)-1-(2-propanyloxy)-2-propanesulfonamide or (1S,2S)-N-(4-(2,6-dimethoxyphenyl)-5-(cis-3-methoxycyclobutyl)-4H-1,2,4-triazol-3-yl)-1-(5-methyl-2-pyrimidinyl)-1-(2-propanyloxy)-2-propanesulfonamide] | 2.7
COc1cccc(OC)c1-n1c(NS(=O)(=O)[C@@H](C)[C@H](OC)c2ncc(Cl)cn2)nnc1[C@H]1C[C@@H](C#N)C1 (single isomer, unassigned) [Example 121.0, (1R,2S)-1-(5-chloro-2-pyrimidinyl)-N-(5-(cis-3-cyanocyclobutyl)-4-(2,6-dimethoxyphenyl)-4H-1,2,4-triazol-3-yl)-1-methoxy-2-propanesulfonamide or (1R,2S)-1-(5-chloro-2-pyrimidinyl)-N-(5-(trans-3-cyanocyclobutyl)-4-(2,6-dimethoxyphenyl)-4H-1,2,4-triazol-3-yl)-1-methoxy-2-propanesulfonamide] | 5.4
COc1ncnc(OC)c1-n1c(NS(=O)(=O)[C@@H](C)[C@@H](OC(C)C)c2ncc(C)cn2)nnc1C1CCC1 [Example 83.0, (1S,2S)-N-(5-cyclobutyl-4-(4,6-dimethoxy-5-pyrimidinyl)-4H-1,2,4-triazol-3-yl)-1-(5-methyl-2-pyrimidinyl)-1-(2-propanyloxy)-2-propanesulfonamide] | 6
COc1ncnc(OC)c1-n1c(NS(=O)(=O)[C@@H](C)[C@H](C)c2ncc(C)cn2)nnc1C1CCCC1 [Example 18.0, (2S,3R)-N-(5-cyclopentyl-4-(4,6-dimethoxypyrimidin-5-yl)-4H-1,2,4-triazol-3-yl)-3-(5-methylpyrimidin-2-yl)butane-2-sulfonamide] | 2.1
COc1ncnc(OC)c1-n1c(NS(=O)(=O)[C@@H](C)[C@H](OC)c2ncc(Cl)cn2)nnc1[C@@H]1CC[C@@H]1F (single isomer, unassigned) [Example 180.0, (1R,2S)-1-(5-chloropyrimidin-2-yl)-N-(4-(4,6-dimethoxypyrimidin-5-yl)-5-((1S,2S)-2-fluorocyclobutyl)-4H-1,2,4-triazol-3-yl)-1-methoxypropane-2-sulfonamide or (1R,2S)-1-(5-chloropyrimidin-2-yl)-N-(4-(4,6-dimethoxypyrimidin-5-yl)-5-((1R,2R)-2-fluorocyclobutyl)-4H-1,2,4-triazol-3-yl)-1-methoxypropane-2-sulfonamide] | 24
COc1ncnc(OC)c1-n1c(NS(=O)(=O)[C@@H](C)[C@@H](OC(C)C)c2cnc(C)cn2)nnc1C1CCC1 [Example 86.0, (1S,2S)-N-(5-cyclobutyl-4-(4,6-dimethoxy-5-pyrimidinyl)-4H-1,2,4-triazol-3-yl)-1-(5-methyl-2-pyrazinyl)-1-(2-propanyloxy)-2-propanesulfonamide] | 36
COc1ncnc(OC)c1-n1c(NS(=O)(=O)[C@@H](C)[C@H](OC)c2ncc(Cl)cn2)nnc1C1CCCC1 [Example 19.0, (1R,2S)-1-(5-chloropyrimidin-2-yl)-N-(5-cyclopentyl-4-(4,6-dimethoxypyrimidin-5-yl)-4H-1,2,4-triazol-3-yl)-1-methoxypropane-2-sulfonamide] | 1.1
COc1cccc(OC)c1-n1c(NS(=O)(=O)[C@@H](C)[C@H](OC)c2ncc(Cl)cn2)nnc1[C@H]1CC[C@H](OC)C1 (single isomer, unassigned) [Example 215.0] | 66
COc1cccc(OC)c1-n1c(NS(=O)(=O)[C@@H](C)[C@@H](OC(C)C)c2ncc(C)cn2)nnc1[C@H]1C2CC1[C@@H]2O [Example 228.0, (1S,2S)-N-(4-(2,6-dimethoxyphenyl)-5-(cis-4-hydroxybicyclo[1.1.1]pentan-2-yl)-4H-1,2,4-triazol-3-yl)-1-isopropoxy-1-(5-methylpyrimidin-2-yl)propane-2-sulfonamide and (1S,2S)-N-(4-(2,6-dimethoxyphenyl)-5-(trans-4-hydroxybicyclo[1.1.1]pentan-2-yl)-4H-1,2,4-triazol-3-yl)-1-isopropoxy-1-(5-methylpyrimidin-2-yl)propane-2-sulfonamide] | 190
(1R,2S)-1-(5-chloropyrimidin-2-yl)-N-(4-(2,6-dimethoxyphenyl)-5-((R)-2,2-dimethylcyclopropyl)-4H-1,2,4-triazol-3-yl)-1-methoxypropane-2-sulfonamide or (1R,2S)-1-(5-chloropyrimidin-2-yl)-N-(4-(2,6-dimethoxyphenyl)-5-((S)-2,2-dimethylcyclopropyl)-4H-1,2,4-triazol-3-yl)-1-methoxypropane-2-sulfonamide [Example 22.0] | 0.29
COc1ncnc(OC)c1-n1c(NS(=O)(=O)[C@@H](C)[C@H](OC)c2ncc(Cl)cn2)nnc1C1CC2(CC2)C1 [Example 183.0, (1R,2S)-1-(5-chloro-2-pyrimidinyl)-N-(4-(4,6-dimethoxy-5-pyrimidinyl)-5-(spiro[2.3]hexan-5-yl)-4H-1,2,4-triazol-3-yl)-1-methoxy-2-propanesulfonamide] | 1.4
COc1cccc(OC)c1-n1c(NS(=O)(=O)[C@@H](C)[C@H](OC)c2ncc(Cl)cn2)nnc1[C@H]1CC(=O)C1(C)C (single isomer, unassigned) [Example 197.0, (1R,2S)-1-(5-chloropyrimidin-2-yl)-N-(4-(2,6-dimethoxyphenyl)-5-((R)-2,2-dimethyl-3-oxocyclobutyl)-4H-1,2,4-triazol-3-yl)-1-methoxypropane-2-sulfonamide or (1R,2S)-1-(5-chloropyrimidin-2-yl)-N-(4-(2,6-dimethoxyphenyl)-5-((S)-2,2-dimethyl-3-oxocyclobutyl)-4H-1,2,4-triazol-3-yl)-1-methoxypropane-2-sulfonamide] | 870
COc1ncnc(OC)c1-n1c(NS(=O)(=O)[C@@H](C)[C@H](OC)c2ncc(C)cn2)nnc1C1CC2(CC2)C1 [Example 200.0] | 4.6
(2S,3R)-3-(5-chloropyrimidin-2-yl)-N-(4-(2,6-dimethoxyphenyl)-5-((S)-spiro[2.2]pentan-1-yl)-4H-1,2,4-triazol-3-yl)butane-2-sulfonamide or (2S,3R)-3-(5-chloropyrimidin-2-yl)-N-(4-(2,6-dimethoxyphenyl)-5-((R)-spiro[2.2]pentan-1-yl)-4H-1,2,4-triazol-3-yl)butane-2-sulfonamide [Example 219.0] | 29
COc1ncnc(OC)c1-n1c(NS(=O)(=O)[C@@H](C)[C@H](OC)c2ncc(Cl)cn2)nnc1[C@H]1CC[C@@H](F)CC1 (single isomer, unassigned) [Example 175.0, (1R,2S)-1-(5-chloropyrimidin-2-yl)-N-(4-(4,6-dimethoxypyrimidin-5-yl)-5-((1s,4R)-4-fluorocyclohexyl)-4H-1,2,4-triazol-3-yl)-1-methoxypropane-2-sulfonamide or (1R,2S)-1-(5-chloropyrimidin-2-yl)-N-(4-(4,6-dimethoxypyrimidin-5-yl)-5-((1r,4S)-4-fluorocyclohexyl)-4H-1,2,4-triazol-3-yl)-1-methoxypropane-2-sulfonamide] | 59
COc1ncnc(OC)c1-n1c(NS(=O)(=O)[C@@H](C)[C@H](OC)c2ncc(Cl)cn2)nnc1[C@H]1CC[C@@H](C(F)(F)F)CC1 (single isomer, unassigned) [Example 173.0, (1R,2S)-1-(5-chloropyrimidin-2-yl)-N-(4-(4,6-dimethoxypyrimidin-5-yl)-5-((1s,4R)-4-(trifluoromethyl)cyclohexyl)-4H-1,2,4-triazol-3-yl)-1-methoxypropane-2-sulfonamide or (1R,2S)-1-(5-chloropyrimidin-2-yl)-N-(4-(4,6-dimethoxypyrimidin-5-yl)-5-((1r,4S)-4-(trifluoromethyl)cyclohexyl)-4H-1,2,4-triazol-3-yl)-1-methoxypropane-2-sulfonamide] | 13
COc1cccc(OC)c1-n1c(NS(=O)(=O)[C@@H](C)[C@H](OC)c2ncc(Cl)cn2)nnc1[C@H]1C[C@H](Cl)C1 (single isomer, unassigned) [Example 154.0, (1R,2S)-1-(5-chloropyrimidin-2-yl)-N-(4-(2,6-dimethoxyphenyl)-5-((1r,3S)-3-chlorocyclobutyl)-4H-1,2,4-triazol-3-yl)-1-methoxypropane-2-sulfonamide or (1R,2S)-1-(5-chloropyrimidin-2-yl)-N-(4-(2,6-dimethoxyphenyl)-5-((1s,3R)-3-chlorocyclobutyl)-4H-1,2,4-triazol-3-yl)-1-methoxypropane-2-sulfonamide] | 0.18
COc1ncnc(OC)c1-n1c(NS(=O)(=O)[C@@H](C)[C@H](OC)c2ncc(Cl)cn2)nnc1C1CC(OC)(OC)C1 [Example 238.0, (1R,25)-1-(5-chloro-2-pyrimidinyl)-N-(5-(3,3-dimethoxycyclobutyl)-4-(4,6-dimethoxy-5-pyrimidinyl)-4H-1,2,4-triazol-3-yl)-1-methoxy-2-propanesulfonamide] | 120
(2S,3R)-3-(5-chloropyrimidin-2-yl)-N-(5-((R)-2,2-difluorocyclopropyl)-4-(2,6-dimethoxyphenyl)-4H-1,2,4-triazol-3-yl)butane-2-sulfonamide or (2S,3R)-3-(5-chloropyrimidin-2-yl)-N-(5-((S)-2,2-difluorocyclopropyl)-4-(2,6-dimethoxyphenyl)-4H-1,2,4-triazol-3-yl)butane-2-sulfonamide [Example 221.0] | 18
